Where a name gives a salt, the structure may show the parent alone. Read-outs that look alike come from different tables or passages of the source.
Target: Hsp82 (Saccharomyces cerevisiae, UniProt P02829)
Assay: PK/LDH enzyme coupling test of the ATPase activity of Hsp82 (NADH decrease at 340 nm)
Assay type: biochemical
Conditions: 1 μM Hsp82, 250 μM ATP, 37° C., pyruvate kinase/lactate dehydrogenase coupling
Description: The formation of ADP due to the ATPase activity of Hsp82 was utilized for developing another method of evaluating the enzymatic activity of this enzyme by application of an enzyme coupling system employing pyruvate kinase (PK) and lactate dehydrogenase (LDH). In this spectrophotometric method of the kinetic type, the PK catalyses the formation of ATP and of pyruvate starting from phosphoenol-pyruvate (PEP) and the ADP produced by HSP82. The pyruvate that formed, an LDH substrate, is then converted to lactate in the presence of NADH. In this case, the decrease in the concentration of NADH, measured by the decrease in absorbance at wavelength of 340 nm, is proportional to the concentration of ADP produced by HSP82. […] This mixture is preincubated at 37° C. for 30 min before adding 3.77 units of LDH and 3.77 units of PK. The reaction is started by adding the product to be evaluated, in variable concentrations, and of Hsp82, at a concentration of 1 μM. The enzymatic activity of Hsp82 is then measured continuously in a microplate reader at 37° C., at wavelength of 340 nm. The initial reaction rate is found by measuring the slope of the tangent at the origin of the recorded curve. The enzymatic activity is expressed as μM of ADP formed per minute. The effect of the various products tested is expressed as percentage of inhibition of ATPase activity, using the following codes: • A: […]

Hsp82, sequence (P02829 whole entry): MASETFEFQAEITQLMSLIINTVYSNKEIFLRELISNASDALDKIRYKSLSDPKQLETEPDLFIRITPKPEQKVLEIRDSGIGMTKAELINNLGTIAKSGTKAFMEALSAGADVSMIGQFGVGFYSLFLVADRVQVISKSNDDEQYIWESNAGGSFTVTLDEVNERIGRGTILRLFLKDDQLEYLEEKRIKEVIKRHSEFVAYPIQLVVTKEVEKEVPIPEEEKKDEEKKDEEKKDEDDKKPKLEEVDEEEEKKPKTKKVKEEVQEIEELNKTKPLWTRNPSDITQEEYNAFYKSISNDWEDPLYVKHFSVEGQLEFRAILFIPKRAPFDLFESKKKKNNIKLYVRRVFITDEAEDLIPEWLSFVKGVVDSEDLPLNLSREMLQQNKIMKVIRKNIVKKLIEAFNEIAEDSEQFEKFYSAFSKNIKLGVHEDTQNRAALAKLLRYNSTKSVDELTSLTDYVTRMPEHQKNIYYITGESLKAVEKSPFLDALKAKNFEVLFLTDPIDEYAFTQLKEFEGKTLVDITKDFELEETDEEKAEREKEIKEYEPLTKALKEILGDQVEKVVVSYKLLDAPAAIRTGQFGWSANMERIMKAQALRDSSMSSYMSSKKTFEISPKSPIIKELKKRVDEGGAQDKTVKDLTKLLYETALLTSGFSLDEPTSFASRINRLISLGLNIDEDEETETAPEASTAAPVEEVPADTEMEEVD

Structure (SMILES)	IC50 (read-out: Hsp82 ATPase IC50) [µM]	IC50 (Hsp82 ATPase IC50 μM) [µM]
ON=C1c2ccccc2-c2c1cccc2-c1nc2cnccc2[nH]1 (mixture of isomers) [Example 5, 4-(3H-imidazo[4,5-c]pyridin-2-yl)-fluoren-9-one oxime (Z, E)]	1 to 10	–
c1ccc(CNN=C2c3ccccc3-c3c2cccc3-c2nc3cnccc3[nH]2)cc1 (mixture of isomers) [Example 8, N-benzyl-N′-[4-(1H-imidazo[4,5-c]pyridin-2-yl)-fluoren-9-ylidene]-hydrazine, 55/45 mixture of E and Z isomers]	1 to 10	–
NN=C1c2ccccc2-c2c1cccc2-c1nc2cnccc2[nH]1 (mixture of isomers) [Example 9, N-[4-(1H-imidazo[4,5-c]pyridin-2-yl)-fluoren-9-ylidene]-hydrazine, 60/40 mixture of E and Z isomers]	1 to 10	–
c1cncc(CON=C2c3ccccc3-c3c2cccc3-c2nc3cnccc3[nH]2)c1 (mixture of isomers) [Example 11, O-(pyridin-3-yl)methyl 4-(3H-imidazo[4,5-c]pyridin-2-yl)-fluoren-9-one oxime (Z, E)]	1 to 10	–
OC=C1c2ccccc2-c2c1cccc2-c1nc2cnccc2[nH]1 (mixture of isomers) [Example 13, [4-(1H-imidazo[4,5-c]pyridin-2-yl)-fluoren-(9)-ylidene]-methanol, equimolecular mixture of the Z and E isomers]	10 to 100	–
O=C(C=C1c2ccccc2-c2c1cccc2-c1nc2cnccc2[nH]1)Nc1cccnc1 (mixture of isomers) [Example 17, 2-[4-(3H-imidazo[4,5-c]pyridin-2-yl)-fluoren-(9E,Z)-ylidene]-N-pyridin-3-yl-acetamide]	1 to 10	–
NC(=O)[C@H](N)CC(=O)NC1c2ccccc2-c2c(-c3nc4cnccc4[nH]3)cccc21 (mixture of isomers) [Example 62, (R)-2-amino-N4-[4-(3H-imidazo[4,5-c]pyridin-2-yl)-9H-fluoren-9(R,S)-yl]-succinamide]	1 to 10	–
O=C(NCc1ccc(Cl)nc1)C1c2ccccc2-c2c(-c3nc4cnccc4[nH]3)cccc21 (racemic) [Example 2, (6-chloropyridin-3-ylmethyl)-amide of 4-(1H-imidazo[4,5-c]pyridin-2-yl)-9H-fluorene-9(R,S)-carboxylic acid]	10 to 100	–
OC1c2ccccc2-c2c(-c3nc4cnccc4[nH]3)cccc21 (racemic) [Example 3, 4-(3H-imidazo[4,5-c]pyridin-2-yl)-9H-fluoren-9(R,S)-ol]	10 to 100	–
O=C(NCc1ccncc1)C1c2ccccc2-c2c(-c3nc4cnccc4[nH]3)cccc21 (racemic) [Example 4, hydrochloride of the (pyridin-4-ylmethyl)-amide of 4-(3H-imidazo[4,5-c]pyridin-2-yl)-9H-fluorene-9(R,S)-carboxylic acid]	10 to 100	–
NC1c2ccccc2-c2c(-c3nc4cnccc4[nH]3)cccc21 (racemic) [Example 6, 4-(3H-imidazo[4,5-c]pyridin-2-yl)-9H-fluorene-9(R,S)-amine]	10 to 100	–
FC1c2ccccc2-c2c(-c3nc4cnccc4[nH]3)cccc21 (racemic) [Example 10, 2-[9(R,S)-fluoro-9H-fluoren-4-yl]-1H-imidazo[4,5-c]pyridine]	1 to 10	–
O=CNC1c2ccccc2-c2c(-c3nc4cnccc4[nH]3)cccc21 (racemic) [Example 12, N-[4-(3H-imidazo[4,5-c]pyridin-2-yl)-9H-fluoren-9(R,S)-yl]-formamide]	10 to 100	–
c1ccc(CCNC2c3ccccc3-c3c(-c4nc5cnccc5[nH]4)cccc32)cc1 (racemic) [Example 16, N-[4-(3H-imidazo[4,5-c]pyridin-2-yl)-9H-fluoren-9(R,S)-yl]-phenethyl-amine]	10 to 100	–
c1ccc2c(c1)-c1c(-c3nc4cnccc4[nH]3)cccc1C2NCc1ccc2[nH]ccc2c1 (racemic) [Example 18, N-[4-(3H-imidazo[4,5-c]pyridin-2-yl)-9H-fluoren-9(R,S)-yl]-(1H-indol-5-ylmethyl)-amine]	10 to 100	–
CCOC(=O)NC1c2ccccc2-c2c(-c3nc4cnccc4[nH]3)cccc21 (racemic) [Example 20, ethyl ester of [4-(3H-imidazo[4,5-c]pyridin-2-yl)-9H-fluoren-9(R,S)-yl]-carbamoic acid]	1 to 10	–
O=C(Cc1cccnc1)NC1c2ccccc2-c2c(-c3nc4cnccc4[nH]3)cccc21 (racemic) [Example 21, N-[4-(3H-imidazo[4,5-c]pyridin-2-yl)-9H-fluoren-9(R,S)-yl]-2-(pyridin-3-yl)-acetamide]	1 to 10	–
c1ccc2c(c1)-c1c(-c3nc4cnccc4[nH]3)cccc1C2NCc1ccc2cc[nH]c2c1 (racemic) [Example 22, N-[4-(3H-imidazo[4,5-c]pyridin-2-yl)-9H-fluoren-9(R,S)-yl]-(1H-indol-6-ylmethyl)-amine]	10 to 100	–
Nc1nc(CC(=O)NC2c3ccccc3-c3c(-c4nc5cnccc5[nH]4)cccc32)cs1 (racemic) [Example 24, trifluoroacetate of 2-(2-amino-thiazol-4-yl)-N-[4-(3H-imidazo[4,5-c]pyridin-2-yl)-9H-fluoren-9(R,S)-yl]-acetamide]	1 to 10	–
O=C(Cc1ccc(Cl)nc1)NC1c2ccccc2-c2c(-c3nc4cnccc4[nH]3)cccc21 (racemic) [Example 25, 2-(6-chloropyridin-3-yl)-N-[4-(3H-imidazo[4,5-c]pyridin-2-yl)-9H-fluoren-9(R,S)-yl]-acetamide]	1 to 10	–
c1ccc2c(c1)-c1c(-c3nc4ccncc4[nH]3)cccc1C2NCc1cccc2ncccc12 (racemic) [Example 26, trifluoroacetate of N-[4-(3H-imidazo[4,5-c]pyridin-2-yl)-9H-fluoren-9(R,S)-yl]-quinolin-5-yl-methylamine]	1 to 10	–
COc1ccc(CC(=O)NC2c3ccccc3-c3c(-c4nc5cnccc5[nH]4)cccc32)cc1 (racemic) [Example 27, N-[4-(3H-imidazo[4,5-c]pyridin-2-yl)-9H-fluoren-9(R,S)-yl]-2-(4-methoxy-phenyl)-acetamide]	1 to 10	–
NC(=O)NC1c2ccccc2-c2c(-c3nc4ccncc4[nH]3)cccc21 (racemic) [Example 28, [4-(3H-imidazo[4,5-c]pyridin-2-yl)-9H-fluoren-9(R,S)-yl]-urea trifluoroacetate]	–	10 to 100
O=C(O)C1c2ccccc2-c2c(-c3nc4cnccc4[nH]3)cccc21 (racemic) [Example 29, hydrochloride of 4-(1H-imidazo[4,5-c]pyridin-2-yl)-9H-fluorene-9(R,S)-carboxylic acid]	10 to 100	–
O=C(NC1c2ccccc2-c2c(-c3nc4ccncc4[nH]3)cccc21)c1cc(O)nc2ccccc12 (racemic) [Example 31, [4-(3H-imidazo[4,5-c]pyridin-2-yl)-9H-fluoren-9(R,S)-yl]amide of 2-hydroxy-quinoline-4-carboxylic acid]	1 to 10	–
O=C(NC1c2ccccc2-c2c(-c3nc4ccncc4[nH]3)cccc21)C1CCOCC1 (racemic) [Example 32, [4-(3H-imidazo[4,5-c]pyridin-2-yl)-9H-fluoren-9(R,S)-yl]amide of tetrahydropyran-4-carboxylic acid]	10 to 100	–

— US7674795B2, “Fluorene derivatives, composition containing said derivatives and the use thereof” (Aventis Pharma SA, priority 2005, dated 2010)
